For one compound, IC50 and inhibition results are on record in article PMC11121628, “Regulation of T Lymphocyte Functions through Calcium Signaling Modulation by Nootkatone” (International Journal of Molecular Sciences, 2024).

Type in all cases: cell-based
One test has as its target T1, ORAI1 (CRAC channel) (Homo sapiens, UniProt Q96D31).
T1 construct: human ORAI1 (hORAI1) co-transfected with hSTIM1 in HEK293T cells; with STIM1
Kind of test: whole-cell patch clamp of ICRAC in transfected HEK293T cells. (Patch clamp records ionic current or voltage across a cell membrane.)

A further test addresses T2, KV1.3 (Homo sapiens, UniProt P22001).
T2 construct: gene KCNA3; KV1.3 current in Jurkat T cells
Kind of test: whole-cell patch clamp of IKV1.[…] in Jurkat T cells.

The next test deals with T3, KCa3.1 (Homo sapiens, UniProt O15554).
T3 construct: gene KCNN4
As to the kind of experiment: whole-cell patch clamp of IKCa3.[…] in stable HEK293T cells. The following applies: HEK-293T.

SMILES strings stand for the structures.

T3 sequence (O15554 whole entry): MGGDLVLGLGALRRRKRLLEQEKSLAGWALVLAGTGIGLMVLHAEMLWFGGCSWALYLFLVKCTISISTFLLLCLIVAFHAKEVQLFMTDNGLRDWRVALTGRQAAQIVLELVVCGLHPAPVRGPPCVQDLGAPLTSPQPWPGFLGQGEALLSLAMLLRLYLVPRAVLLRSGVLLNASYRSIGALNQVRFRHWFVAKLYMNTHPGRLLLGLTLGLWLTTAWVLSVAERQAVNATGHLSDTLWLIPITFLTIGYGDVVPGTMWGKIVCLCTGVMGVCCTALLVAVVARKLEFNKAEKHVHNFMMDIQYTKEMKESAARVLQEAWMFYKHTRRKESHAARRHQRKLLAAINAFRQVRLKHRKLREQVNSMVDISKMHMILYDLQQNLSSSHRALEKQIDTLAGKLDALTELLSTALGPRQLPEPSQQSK
T1 sequence (Q96D31 whole entry): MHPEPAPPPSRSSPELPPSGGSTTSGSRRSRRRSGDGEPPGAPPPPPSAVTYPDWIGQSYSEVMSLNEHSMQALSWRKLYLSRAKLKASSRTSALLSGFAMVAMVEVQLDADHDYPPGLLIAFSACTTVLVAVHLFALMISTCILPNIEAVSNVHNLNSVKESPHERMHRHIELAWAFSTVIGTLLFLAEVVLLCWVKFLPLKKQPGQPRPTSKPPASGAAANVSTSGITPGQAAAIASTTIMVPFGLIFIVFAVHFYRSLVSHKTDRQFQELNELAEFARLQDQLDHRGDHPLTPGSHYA
T1 sequence (Q13586 23-685, further chain): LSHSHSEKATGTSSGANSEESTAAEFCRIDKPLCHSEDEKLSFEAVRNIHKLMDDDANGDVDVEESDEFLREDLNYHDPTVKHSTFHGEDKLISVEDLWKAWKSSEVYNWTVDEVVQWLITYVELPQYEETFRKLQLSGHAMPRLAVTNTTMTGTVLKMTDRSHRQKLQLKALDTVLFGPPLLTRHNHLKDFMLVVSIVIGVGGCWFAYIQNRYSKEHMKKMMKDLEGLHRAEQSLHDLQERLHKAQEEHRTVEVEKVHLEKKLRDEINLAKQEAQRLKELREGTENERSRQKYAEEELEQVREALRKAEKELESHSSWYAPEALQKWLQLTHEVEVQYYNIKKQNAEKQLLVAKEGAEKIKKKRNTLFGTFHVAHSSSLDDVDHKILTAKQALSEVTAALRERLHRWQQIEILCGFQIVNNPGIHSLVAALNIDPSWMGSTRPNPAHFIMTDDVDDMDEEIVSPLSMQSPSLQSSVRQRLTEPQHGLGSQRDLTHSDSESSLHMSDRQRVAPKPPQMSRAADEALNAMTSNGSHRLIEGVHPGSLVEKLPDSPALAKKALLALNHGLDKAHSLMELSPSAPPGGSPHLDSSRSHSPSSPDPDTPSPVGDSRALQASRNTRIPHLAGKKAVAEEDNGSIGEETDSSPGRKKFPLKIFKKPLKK
T2 sequence (P22001 whole entry): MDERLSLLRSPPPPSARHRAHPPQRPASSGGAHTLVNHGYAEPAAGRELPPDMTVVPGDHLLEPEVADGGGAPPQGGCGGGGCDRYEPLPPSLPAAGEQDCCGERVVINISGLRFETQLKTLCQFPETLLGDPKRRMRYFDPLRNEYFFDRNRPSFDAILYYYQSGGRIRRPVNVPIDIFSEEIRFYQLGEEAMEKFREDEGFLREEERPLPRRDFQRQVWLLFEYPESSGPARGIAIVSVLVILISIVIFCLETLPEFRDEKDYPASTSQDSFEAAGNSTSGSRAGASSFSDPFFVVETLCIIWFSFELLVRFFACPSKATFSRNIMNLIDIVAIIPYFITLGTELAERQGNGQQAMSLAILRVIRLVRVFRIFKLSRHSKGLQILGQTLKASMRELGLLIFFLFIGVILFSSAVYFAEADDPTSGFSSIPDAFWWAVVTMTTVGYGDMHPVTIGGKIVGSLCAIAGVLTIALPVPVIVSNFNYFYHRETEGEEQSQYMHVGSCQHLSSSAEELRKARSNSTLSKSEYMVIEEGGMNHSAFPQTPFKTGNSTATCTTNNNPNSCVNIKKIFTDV

A word on the IC50: it is the concentration needed to halve the response being measured. Lower therefore signals greater potency in that assay. In general, inhibition refers to the relative decrease from the control value, in per cent. A high value points to a response far below the control. Turning to `C=C(C)[C@@H]1CCC2=CC(=O)C[C@@H](C)[C@]2(C)C1` [nootkatone], the 50% inhibitory concentration (IC50) on ORAI1 (CRAC channel) was approximately 12.6 µM; at KV1.3, 10.8 µM. This compound also returned an inhibition at 100 µM against KCa3.1 of approximately 20%.
